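Method: 48-hour compound exposure of cells in 96-well plates, five concentrations, linear interpolation of endpoints. TGI: total growth inhibition.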 Bounds are passed on as bounds.

The text below walks through data of PubChem BioAssay (NCI).

Holding throughout (assay): NCI tumour cell line growth inhibition, 48 h
The subject of assay [1] is NCI-H460 lung.
For assay [2], the system named is RXF 393 renal.
Assay [3] has as its system SF-295 CNS.
In assay [4] the test system is SNB-75 CNS.
Assay [5] has as its system SW-620 colon.
Assay [6] has as its system SF-539 CNS.
Assay [7] relates to HCT-15 colon.
Assay [8] concerns OVCAR-3 ovarian.
Assay [9] concerns K-562 leukemia.

`CCCCCCCCCCCCCC(=O)CSCCNC(=O)CCNC(=O)[C@@H](O)C(C)(C)COP(=O)(O)OP(=O)(O)OCC1OC(n2cnc3c(N)ncnc32)C(O)C1OP(=O)(O)O` (some centres not stated): the TGI in assay [1] came out at 79.7 µM; in [2], 42.3 µM; in assay [3] it was 27.3 µM; in assay [4], 18.2 µM; in assay [5], 55.5 µM; in assay [6], 29.8 µM. The figures for the TGI in assay [7] and in [8] were 42.7 µM and greater than 100 µM, respectively.
On to `CCOc1ccc(O)cc1[P+](c1ccccc1)(c1ccccc1)c1ccccc1`, for which the TGI in [1] turned out to be 14.5 µM; in assay [2], 17.9 µM; in [3], 19.9 µM; in [4] it was 25.6 µM; in assay [6], 17.8 µM; in assay [8], 11.4 µM. The same compound yielded a TGI in assay [9] of 9.48 µM.
As for `CN(/N=C/c1cccc2cccnc12)c1c([N+](=O)[O-])cc([N+](=O)[O-])cc1[N+](=O)[O-]`, the TGI in assay [1], in assay [2], in assay [3], in [4], in assay [5] and in assay [6] was greater than 100 µM each time. Also, the TGI in assay [7], in [8] and in [9] was greater than 100 µM in each case.
For the compound `CCOC(=O)/C(=C/c1ccc(N(CCC#N)CCC#N)cc1C)NC(=O)/C=C/c1ccccc1`, the TGI in assay [1], in [2], in assay [3], in assay [4], in assay [5] and in [6] was greater than 100 µM throughout. Moreover, the TGI in assay [7], in [8] and in assay [9] was greater than 100 µM each time.
As to `Cc1cc(=O)[nH]c(CNC(=O)c2cccc(C(=O)NCc3cc(=O)[nH]c(C)n3)c2)n1`, the TGI in assay [1], in assay [2], in assay [3], in assay [4], in assay [5] and in assay [6] was greater than 100 µM each time. The TGI in [7], in [8] and in [9] was greater than 100 µM throughout.
Regarding `O=C(CCc1nnc2s/c(=C\c3ccccc3Cl)c(=O)n12)Nc1cc(Cl)ccc1Cl`, the TGI in assay [1], in assay [2], in [3], in assay [5], in assay [6] and in [7] was greater than 100 µM each time. Besides, the TGI in assay [8] and in [9] was greater than 100 µM in each case.
For the compound `COC1OC(C)C2OC(C)(C)OC2C1OC(C)=O` (configuration not stated), the TGI in assay [1], in [2], in assay [3], in assay [5], in [6] and in [7] was greater than 100 µM in each case. In addition, the TGI in [8] and in assay [9] was greater than 100 µM throughout.
Regarding `CC(=O)NNc1nc(C)c(C(=O)NNC(=O)C(=O)Nc2ccc([N+](=O)[O-])cc2C#N)s1`, the TGI in assay [1], in assay [5], in assay [6], in assay [7], in assay [8] and in assay [9] was greater than 100 µM throughout.
Regarding `CC1NC(=O)C2=C1C(N)=NC(=O)C2` (configuration not stated), the TGI in [1], in [2], in [3], in assay [4], in assay [5] and in [6] was greater than 100 µM in each case. Besides, the TGI in [7], in assay [8] and in assay [9] was greater than 100 µM in each case.
`CCN(CC)CCn1[nH]c2c3ccc(=O)cc3sc3c(NCCN)ccc1c32`: the TGI in [1] was determined as 1.25 µM; in assay [2] it was 3.43 µM; in assay [3], 8.07 µM; in assay [4] it was 3.61 µM; in [5], 4.77 µM; in assay [6], 1.72 µM. Besides, the TGI in assay [7] turned out to be 16.7 µM; in [8], 8.17 µM; in assay [9], 1.42 µM.
Take `CC(C)(C)OC(=O)c1cccnc1/C=N/O`: the TGI in [1], in [2], in assay [3], in [4], in [5] and in assay [6] was greater than 100 µM in each case. The TGI in assay [7], in assay [8] and in assay [9] was greater than 100 µM each time.
Turning to `NCCCCCCNCc1cccc2ccccc12`, the TGI in [1], in [2], in [3], in [4], in assay [5] and in [6] was greater than 100 µM each time. The TGI was greater than 100 µM in [7], greater than 100 µM in [8] and 51.1 µM in assay [9].
Consider `CC[N+](C)(CC)CC(C)(C)C(=O)/C=C/c1ccc(/C=C/C(=O)C(C)(C)C[N+](C)(CC)CC)cc1`, for which the TGI in assay [1], in assay [2], in [3], in assay [4], in assay [5] and in assay [6] was greater than 100 µM throughout. The TGI in assay [7], in [8] and in assay [9] was greater than 100 µM throughout.
Turning to `CN(C)CCNC(=O)c1cccc2ccc(-c3ccc(-c4ccccc4)cc3)nc12`, the TGI in assay [1] amounted to 2.98 µM; in assay [2], 6.15 µM; in [3] it was 4.03 µM; in assay [4] it was 6.11 µM; in assay [5], 4.74 µM; in assay [6], 3.31 µM. Moreover, the TGI in assay [7] amounted to 4.14 µM; in assay [8], 12 µM; in assay [9], 5.64 µM.
As for `O=C1C2C3C=C4c5ccccc5N(c5ccccc5)C4(C2C(=O)N1c1ccc(Br)cc1)[C@H]1C(=O)N(c2ccc(Br)cc2)C(=O)[C@@H]31` (some centres not stated), the TGI in [1], in assay [2], in [3], in assay [4], in assay [5] and in assay [6] was greater than 100 µM in each case. In addition, the TGI in [7], in assay [8] and in assay [9] was greater than 100 µM in each case.
For `O=C(C/C(CCC(=O)N(Cc1ccccc1)Cc1ccccc1)=N/Nc1ccc([N+](=O)[O-])cc1[N+](=O)[O-])c1ccccc1`, the TGI in [1], in assay [3], in assay [4], in assay [5], in assay [6] and in assay [7] was greater than 100 µM in each case. The TGI in assay [8] and in assay [9] was greater than 100 µM in each case.
Take `Cc1nc2sccn2c1C(=O)NC(=O)Nc1ccc(Cl)cc1`: the TGI in [1] is greater than 100 µM; in assay [2], greater than 100 µM; in assay [3], greater than 100 µM; in assay [4] it was 50.8 µM; in assay [5], greater than 100 µM; in assay [6], greater than 100 µM. In addition, the TGI in assay [7], in assay [8] and in assay [9] was greater than 100 µM each time.
On to `Cn1c(=O)c2[nH]cnc2n(CC(N)=O)c1=O`, for which the TGI in assay [1], in [4], in assay [5], in assay [6], in assay [7] and in [8] was greater than 100 µM each time. In assay [9], this compound came in with a TGI greater than 100 µM.
Consider `COC(=O)/C=c1\s/c(=C\C(=O)OC)c2ccccc12`, for which the TGI in [2], in assay [3], in [4], in [5], in assay [6] and in assay [7] was greater than 100 µM in each case. For the same compound, the TGI in assay [8] and in assay [9] was greater than 100 µM throughout.
Take `COc1cc2c(cc1C1=NC(C)(C)CO1)OCO2`: the TGI in [1], in [2], in [3], in assay [4], in assay [5] and in [6] was greater than 100 µM throughout. For the same compound, the TGI in assay [7], in [8] and in [9] was greater than 100 µM in each case.
Turning to `N#Cc1ccc2cc3c(cc2c1)OCO3`, the TGI in [1] was greater than 100 µM; in assay [2], greater than 100 µM; in assay [3] it was greater than 100 µM; in [4], 74.3 µM; in assay [6], greater than 100 µM; in assay [7] it was greater than 100 µM. Also, the TGI in assay [8] and in [9] was greater than 100 µM each time.
As for `COC1C2c3cc4c(cc3CC(C#N)(c3ccccc32)N1C(=O)c1ccccc1)OCO4` (configuration not stated), the TGI in assay [1], in [2], in [3], in [4], in [5] and in assay [6] was greater than 100 µM throughout. Moreover, the TGI in assay [7], in assay [8] and in assay [9] was greater than 100 µM in each case.
Regarding `C=CCOC(=O)C1CCC(=O)N1C(=O)C(Cl)Cl` (configuration not stated), the TGI in [1], in assay [3], in assay [4], in assay [5], in assay [7] and in assay [8] was greater than 100 µM in each case. Besides, the TGI in [9] is greater than 100 µM.
